Measured values published in the NIST ThermoML archive (doi:10.1021/acs.jced.8b00936).
± gives the expanded uncertainty stated by the source.

Conditions: 100 kPa, Liquid, Pycnometric method

## CCCCOCCOCCCC [5,8-dioxadodecane]
273.15 K
  mass density: 859.9 ± 4.9 kg/m3
283.15 K
  mass density: 849.3 ± 4.8 kg/m3
